A value given as a limit tells only on which side of the number the result lay.

A word on the melting point: it is the temperature of the solid-liquid transition. Compound `CN(CCC(Oc1ccc(S(=O)(=O)c2ccccc2)cc1)c1ccccc1)CC(=O)O` (stereo not drawn) yielded a melting point of 95 to 100 °C.

Take `CC(C)c1c(O)ccc2c1oc1ccc(C#N)cc12`: the melting point was in the range of 180 to 182 °C. The figure for `CC(C)C[C@H]1[C@@H](O)C(=O)N1C(=O)OC(C)(C)C` is 108 °C; for `COc1ccc2c(c1)OC(C(=O)O)Oc1ccccc1C2` (stereo not drawn) it is 149 to 153 °C; for `COC(=O)[C@@](N)(CCSC)C(=O)c1ccc(NC[C@@H]2C[C@@H](O)CN2C(=O)OC(C)(C)C)cc1-c1ccccc1` it is 81 °C. In the case of `O=C1CC=CC(C(=O)O)C1` (stereo not drawn) it was 98 to 101 °C. The figure for `CN1CCN(C(=O)c2c(N3CCN(C(=O)c4ccco4)CC3)n(-c3ccccc3)c3ccccc23)CC1` is 180 to 181 °C. Compound `CCCOC(=O)c1c(-c2ccncc2)[nH]c(-c2ccncc2)c1C` gave a melting point of 215 to 218 °C. As to `Cc1nc2cc3c4c(cccc4c2[nH]1)C(=O)N(O)C3=O`, the melting point is > 330 °C. `CC(=O)N1CCN(Cc2cnc(-c3cc4cccc(NS(=O)(=O)c5cccs5)c4[nH]3)s2)CC1` registered a melting point of 149 to 150 °C. In the case of `COCn1c(-c2ccncc2)c(C)c(CO)c1-c1ccncc1`, the melting point was in the range of 181 to 183 °C. `CCCCCCOc1ccc(-n2cc(C(=O)O)cn2)cc1C#N` registered a melting point of 164 to 165 °C.

`NC1=NC(Br)=C(c2ccc(C(F)(F)F)cc2)c2ccccc2C1`: the melting point fell in the range of 227 to 229 °C. In the case of `CC(C)c1nc(C(F)(F)F)ccc1C(=O)c1c(S(C)(=O)=O)noc1C1CC1` it was 105 to 106 °C; in that of `Cn1c(C(=O)O)cc2c3c(c(-c4ccccc4Cl)cc21)C(=O)NC3=O`, 301 to 302 °C; in that of `O=C(O)C(=O)c1cn(Cc2ccc(F)cc2)c2ccc(-c3ccccc3)cc12`, 165 to 166 °C. The figure for `c1nc(SCC2CCCC2)n[nH]1` is 48 to 55 °C; for `CCCCCCCCCCCCCCCC(=O)C1C(=O)CC(C#N)CC1=O` (stereo not drawn) it is 66 to 69 °C. Compound `O=C1c2ccccc2CN1c1ccc2c(c1)OCCO2` had a melting point of 170 to 176 °C.

Compound `O=C(NCCCCCCCNC(=O)c1ccc2c(c1)OCO2)c1ccc2c(c1)OCO2` gave a melting point of 151 to 152 °C. The figure for `CC1(C)CC(c2ccccn2)c2cc(C(=O)O)ccc2O1` (stereo not drawn) is 207 to 208 °C; for `CCCNc1nc(NCCC)nc(N2CCN(C(=O)Nc3cc(C)c(C)nc3OC)CC2)n1` it is 140 to 143 °C; for `COc1ccc(CN(C)CCc2ccc(NC(=O)c3cccc4c(=O)c5cccc(OC)c5[nH]c34)cc2)cc1OC` it is 172 °C. On to `CC(C)(C(=O)O)C1OCCc2ccccc21` (stereo not drawn), for which the melting point fell in the range of 110 to 116 °C. For the compound `CCCNC(=O)C1(CCCCNc2ccc(Br)nc2)c2ccccc2-c2ccccc21`, the melting point was in the range of 67 to 69 °C.

`CCCC(CCC)n1c(CC)nc2c1C(=O)N(C)CN2c1ccc(Cl)cc1Cl` had a melting point of 117 to 118 °C. Consider `COc1ccc(COc2c(C)c(C)c3c(c2C)C(c2ccc(N4CCN(C)CC4)cc2)C(C)(C)O3)cc1` (stereo not drawn), for which the melting point fell in the range of 121 to 122 °C. In the case of `CCOCc1cc(COc2cc(CC)nc(C)c2OC)ccc1-c1ccccc1S(=O)(=O)Nc1noc(C)c1C` it was 64 to 72 °C. In turn, `CCCOc1ccc(C(=O)CBr)cc1` showed a melting point of 36 to 38 °C. The figure for `CC(C)Oc1cc(CCCNC(=O)NS(=O)(=O)c2ccccc2)n(Cc2ccc(Cl)cc2Cl)n1` is 149 °C; for `O=C1c2ccccc2-c2c1c1ccccc1c(=O)n2CCO` it is 201 to 204 °C. The figure for `CCCCc1nnc(-c2ccc(N)cc2)o1` is 125 °C; for `CCC1(C)SC(C)N=C1C` (stereo not drawn) it is 82 °C; for `O=C1CC2CCS(=O)c3ccccc3C2=NN1c1ccc(Cl)cc1` (stereo not drawn) it is 190 to 191 °C.

`COC(=O)Cc1cc(=O)[nH]c2cc(F)ccc12`: the melting point fell in the range of 255 to 256 °C. Turning to `CC(=O)CC(=O)N1C(=N)CCN=C(c2ccccc2)c2cc(Cl)ccc21`, the melting point was in the range of 149 to 150 °C. In the case of `CNC(=NC#N)NCCSCc1ccc(CN)o1` it was 80 to 82 °C. In the case of `COc1cccc(CNc2n[nH]c3ncnc(Nc4cccc(Cl)c4)c23)c1` it was 192 to 193 °C; in that of `CC(C)C(=O)O[C@H]1[C@H](C)OC(=O)[C@@H](NC(=O)OC(C)(C)C)COC(=O)[C@@H]1CI`, 168 to 171 °C; in that of `Cc1nnc(-c2ccc3occ(-c4ccc(OCS(C)(=O)=O)cc4)c3c2)o1`, 198 to 199 °C. The figure for `N#Cc1cccnc1N1CCN(CC(=O)Nc2cc(C(F)(F)F)ccc2F)CC1` is 130 to 133 °C; for `Cc1oc(-c2ccccc2)nc1COc1ccc(OCc2oc(-c3ccccc3)nc2C=O)cc1` it is 127 to 128 °C; for `Cc1cc(C(O)(c2ccc(Cl)cc2)C(F)(F)F)ccc1N` (stereo not drawn) it is 157 to 160 °C. In the case of `CCCCNc1cc(C=NO)cc(S(N)(=O)=O)c1Oc1ccccc1`, the melting point is 226 to 228 °C.

For `O=C1c2ccccc2C2(O)Oc3ccc([N+](=O)[O-])cc3C12O` (stereo not drawn), the melting point lay within 206 to 207 °C. Compound `CC(C)(C)NC(=O)OC1CCOC1=O` (stereo not drawn) came in with a melting point of 104 to 106 °C. The figure for `CC1(C)CCC(C)(C)c2cc(CC(=O)O)ccc21` is 149 to 150 °C; for `CCOC(=O)c1c2n(c3cc(N4CCN(CC(C)=O)CC4)c(F)cc3c1=O)CS2` it is 170 to 172 °C; for `CC(C(=O)N(C)CCO)c1cc(C(C)(C)C)c(O)c(C(C)(C)C)c1` (stereo not drawn) it is 66 °C. Consider `COc1cc2c(cc1OC)C(C)=[N+]([O-])C(c1cccs1)N2` (stereo not drawn), for which the melting point was 180 to 185 °C. The figure for `CCOc1ccc(C(OC(C)=O)c2sccc2C=O)cc1OCC` (stereo not drawn) is 68 °C. The figure for `CCCCNC(=O)c1cc(=O)c(Oc2ccccc2)co1` is 149 to 151 °C; for `COC(=O)[C@@H]1CCCN1S(=O)(=O)c1ccc(C)c(COc2cccc3c(C)cc(C)nc23)c1C` it is 50 °C. Compound `CCN(CC)c1nc(C(F)(F)C(F)(F)F)nn1-c1c(Cl)cc(Cl)cc1Cl` returned a melting point of 66 to 70 °C. In the case of `CC(NC1=C(N=Nc2ccccc2)C(=O)SC1)c1ccccc1` (stereo not drawn), the melting point was in the range of 129 to 130 °C. The figure for `CN1CCCC(C(=O)N2CCC(c3[nH]nc4c3C(=O)c3c(NC(=O)NN5CCOCC5)cccc3-4)CC2)C1` (stereo not drawn) is 158 to 160 °C; for `CCCc1c(OCCCS(=O)(=O)c2ccc(CC(=O)O)c(Cl)c2Cl)ccc(C(C)=O)c1O` it is 180 to 181 °C; for `O=C1CNc2ccc(S(=O)(=O)Oc3ccccc3)cc2N1` it is 253 to 254 °C. On to `CC(=O)O[C@@](Cn1cncn1)(c1ccc(F)cc1F)[C@@H](C)S(=O)(=O)Cl`, for which the melting point was 110 to 115 °C. The figure for `COc1ccccc1NCN1C(=O)CN(C)C1=O` is 93 to 96.5 °C; for `NC(=O)c1sc2ncnc(-c3cccc(NC(=O)Nc4cccc(C(F)(F)F)c4)c3)c2c1N` it is 201 to 203 °C; for `COc1ccccc1NC(=O)Nc1nc(Nc2ccccc2-c2ccccc2)nc(N2CCCCC2C(=O)O)n1` (stereo not drawn) it is 150 to 154 °C. As to `Cc1ccc(S(=O)(=O)OCC2Cc3cccc(C=Cc4ccccc4)c3O2)cc1` (stereo not drawn), the melting point lay in the range of 120 to 122 °C. In the case of `CNC(=O)Cc1cccc(NC(=O)NC)c1` it was 175 to 177 °C; in that of `Cc1ccc(S(=O)(=O)OCC2Cc3cccc(-c4cccc(C(F)(F)F)c4)c3O2)cc1` (stereo not drawn), 90 to 93 °C; in that of `CC1Nc2ccccc2N2CCc3cccc1c32` (stereo not drawn), 127 to 134 °C. With `CON(C)C(=O)Nc1c(C(=O)C2CCCCC2)[nH]c2cc(Cl)ccc12`, the melting point lay within 208 to 210 °C. In the case of `Cc1ccc(S(=O)(=O)NCCCCOc2ccc(-n3cccc3)cc2)cc1` it was 124 to 126 °C; in that of `COC(=O)c1cc(OCc2c(C)cccc2C)c2nc(C)n(C)c2c1`, 165 to 169 °C. The figure for `CCOC(=O)c1cnc2c3cc(N)ccc3c(C)cn2c1=O` is 245 to 248 °C; for `CCS(=O)(=O)c1cc(C(=O)Cl)c(OC)cc1Cl` it is 115 to 117 °C; for `CCOC(=O)c1nc(NC(C)=O)sc1Cc1ccccc1` it is 178 to 180 °C. In the case of `COc1ccc(CNc2nc(SC)ncc2C(=O)Nc2cncnc2)cc1Cl` it was 238 to 240 °C; in that of `OC(CCCN1CC=C(c2ccccc2)CC1)c1ccc(F)cc1` (stereo not drawn), 116 to 117 °C; in that of `CC(O)CCc1ccc(-c2ccccc2F)cc1` (stereo not drawn), 59 to 60 °C. `CCCC(=O)Nc1n[nH]c2cc(C(F)(F)F)ccc12` came in with a melting point of 200 °C.

With `CC(C)(C)c1cc(Oc2ccc(N)cc2)ccc1Oc1ccc(N)cc1`, the melting point was in the range of 129 to 130 °C. With `c1ccc(OCCSCc2nnc(-c3ccc(OCCCCN4CCCCCC4)cc3)o2)cc1`, the melting point lay within 35 to 38 °C. In the case of `CN1CCN(C(=O)Cn2nc(-c3ccccc3O)nc2-c2ccccc2O)CC1` it was 199 to 201 °C. In turn, `CCOC(=O)CN1Cc2ccccc2C[C@H](NC(=O)OCc2ccccc2)C1=O` registered a melting point of 80 to 82 °C. In the case of `COc1ccc(C(=O)Nc2ccccc2)cc1NS(=O)(=O)c1ccc(C(F)(F)F)cc1` it was 197 to 198 °C; in that of `CC(=O)OCC1OC(n2c(Cl)c(C=O)c3cc(Cl)c(Cl)cc32)C(O)C1O` (stereo not drawn), 154 to 155 °C; in that of `CCOC(=O)C1=Cc2cc(C#N)ccc2OC1C(F)(F)F` (stereo not drawn), 102 to 106 °C. With `O=C(Cn1cccc(O)c1=O)NCCN(CCNC(=O)Cn1cccc(O)c1=O)CCNC(=O)Cn1cccc(O)c1=O`, the melting point is 112 to 114 °C. In turn, `CCCc1[nH]c(C(=O)OCC)c(C)c1CCC(=O)OCC` showed a melting point of 61.5 to 63.5 °C. Compound `N#Cc1cccc(-c2nc(-c3ccccn3)no2)c1` gave a melting point of 148 to 149 °C. As to `CC(C)Oc1ccc(Nc2nc(=O)n(C(C)C)c(=O)n2Cc2ccc(Cl)cc2)cc1Cl`, the melting point was found to be 167 °C. Compound `NC(=O)c1ccc(NCc2cccc([N+](=O)[O-])c2)cc1` gave a melting point of 178 to 180 °C.
